Active and inactive are the calls of the source. The rule behind the calls is not given here.

The nature of data set [1]: Antiproliferative activity against human MES-SA cells assessed as growth inhibition. It counts as functional, cell-based.
Data set [2] can be described thus: Antiproliferative activity against P-gp overexpressing human MES-SA/Dx5-Rx1 cells assessed as growth inhibition. It counts as functional.
Data set [3] relates to DLD-1. Put plainly: Antiproliferative activity against human DLD1 cells assessed as growth inhibition. It counts as functional, cell-based.
Data set [4] deals with HCT-15. Put plainly: Antiproliferative activity against human HCT15 cells assessed as growth inhibition. It is filed as functional, cell-based.
Data set [5] in a line: Cytotoxicity against human IMR90 cells up to 1 uM. It is filed as cell-based. The following applies: imr-90.
Data set [6] concerns LOX. In words: Antitumor activity against human LOX cells xenografted in athymic mouse assessed as inhibition of tumor growth at 0.1 mg/kg, iv qd administered 5 days a week for 2 weeks measured up to 2 weeks. It is filed as functional, organism-based. Also on record: dose 0.1 mg/kg.
Data set [7] deals with LOX. Put plainly: Antitumor activity against human LOX cells xenografted in athymic mouse assessed as inhibition of tumor growth at 0.1 mg/kg, iv qd administered 5 days a week for 2 weeks measured after 2 weeks. Also on record: dose 0.1 mg/kg. It counts as functional, organism-based.
Data set [8] concerns Mus musculus. Put plainly: Toxicity in athymic mouse xenografted with human LOX cells assessed as body weight loss at 0.1 mg/kg, iv qd administered 5 days a week for 2 weeks. It counts as organism-based. More on the design: dose 0.1 mg/kg, route intravenous. The conditions noted are these: in vivo.
In data set [9] the test system is Mus musculus. In words: Toxicity in athymic mouse xenografted with human LOX cells assessed as reduction in water uptake at 0.1 mg/kg, iv qd administered 5 days a week for 2 weeks. It counts as organism-based. More on the design: dose 0.1 mg/kg, route intravenous. The conditions noted are these: in vivo.
Data set [10] in a line: Fold resistance, ratio of IC50 for antiproliferative activity for P-gp overexpressing human MES-SA/Dx5-Rx1cells to IC50 for antiproliferative activity for human MES-SA cells.

As for `C=C1C[C@@H]2CC[C@@]34C[C@H]5O[C@H]6[C@@H](O3)[C@H]3O[C@H](CC[C@@H]3O[C@H]6[C@H]5O4)CC(=O)C[C@@H]3[C@@H](OC)[C@@H](C[C@@H](COC)OC)O[C@H]3C[C@H]3O[C@@H](CC[C@@H]1O2)C[C@@H](C)C3=C`, the concentration for half-maximal inhibition (IC50) was determined as 0.24 nM in data set [1], 1.86 nM in [2], 0.36 nM in data set [3] and 0.21 nM in data set [4]. Further, the Activity entry in data set [5], in [8] and in data set [9] was “Non-toxic” throughout. In data set [6], the outcome was Active. In data set [7], the result was inactive. In addition, the “Ratio IC50” value in [10] turned out to be 7.76.
With `C=C1C[C@@H]2CC[C@@]34C[C@H]5O[C@H]6[C@@H](O3)[C@H]3O[C@H](CC[C@@H]3O[C@H]6[C@H]5O4)CC(=O)C[C@@H]3[C@@H](OC)[C@@H](CC(=O)OCC)O[C@H]3C[C@H]3O[C@@H](CC[C@@H]1O2)C[C@@H](C)C3=C`, the concentration for half-maximal inhibition (IC50) in data set [1] amounted to 0.37 nM; in data set [2], 1.17 nM; in [3], 0.45 nM; in data set [4], 0.4 nM. Besides, in data set [5], the Activity entry is given as “Non-toxic”. In addition, the “Ratio IC50” value in data set [10] amounted to 3.21.
With `C=C1C[C@@H]2CC[C@@]34C[C@H]5O[C@H]6[C@@H](O3)[C@H]3O[C@H](CC[C@@H]3O[C@H]6[C@H]5O4)CC(=O)C[C@@H]3[C@@H](OC)[C@@H](CC(=O)COC)O[C@H]3C[C@H]3O[C@@H](CC[C@@H]1O2)C[C@@H](C)C3=C`, the half-maximal inhibitory concentration (IC50) came to 0.44 nM in data set [1], 2.92 nM in data set [2], 0.67 nM in data set [3] and 0.62 nM in [4]. Further, in [5], the Activity result was “Non-toxic”. In addition, the “Ratio IC50” value in [10] amounted to 6.7.
In the case of `C=C1C[C@@H]2CC[C@@]34C[C@H]5O[C@H]6[C@@H](O3)[C@H]3O[C@H](CC[C@@H]3O[C@H]6[C@H]5O4)CC(=O)C[C@@H]3[C@@H](OC)[C@@H](C[C@H](O)COC)O[C@H]3C[C@H]3O[C@@H](CC[C@@H]1O2)C[C@@H](C)C3=C`, the IC50 in data set [1] is 0.17 nM; in data set [2], 2.82 nM; in data set [3], 0.27 nM; in data set [4], 0.2 nM. For the same compound, the Activity result in data set [5], in data set [8] and in data set [9] was “Non-toxic” throughout. Also, the result in data set [6] was Active. Moreover, the result in data set [7] was inactive. For the same compound, the “Ratio IC50” value in [10] was found to be 17.09.
For `C=CCO[C@H](CO)C[C@H]1O[C@H]2C[C@H]3O[C@@H](CC[C@@H]4O[C@@H](CC[C@@]56C[C@H]7O[C@H]8[C@@H](O5)[C@H]5O[C@H](CC[C@@H]5O[C@H]8[C@H]7O6)CC(=O)C[C@@H]2[C@H]1OC)CC4=C)C[C@@H](C)C3=C`, the half-maximal inhibitory concentration (IC50) turned out to be 0.24 nM in data set [1], 4.13 nM in data set [2], 0.2 nM in data set [3] and 0.22 nM in data set [4]. The Activity entry in data set [5] is reported as “Non-toxic”. For the same compound, in data set [10], the “Ratio IC50” value came to 17.19.
For the compound `C=C1C[C@@H]2CC[C@@]34C[C@H]5O[C@H]6[C@@H](O3)[C@H]3O[C@H](CC[C@@H]3O[C@H]6[C@H]5O4)CC(=O)C[C@@H]3[C@@H](OC)[C@@H](C[C@@H](CO)OC)O[C@H]3C[C@H]3O[C@@H](CC[C@@H]1O2)C[C@@H](C)C3=C`, the IC50 turned out to be 0.3 nM in data set [1], 11.3 nM in data set [2], 0.75 nM in data set [3] and 0.67 nM in [4]. Further, the Activity result in data set [5] is “Non-toxic”. For the same compound, the “Ratio IC50” value in [10] was 37.73.
For `C=C1C[C@@H]2CC[C@@]34C[C@H]5O[C@H]6[C@@H](O3)[C@H]3O[C@H](CC[C@@H]3O[C@H]6[C@H]5O4)CC(=O)C[C@@H]3[C@@H](OC)[C@@H](C[C@@H](COC(C)=O)OC(C)=O)O[C@H]3C[C@H]3O[C@@H](CC[C@@H]1O2)C[C@@H](C)C3=C`, the 50% inhibitory concentration (IC50) in data set [1] was determined as 0.32 nM; in data set [2], 2.77 nM; in data set [3], 0.44 nM; in data set [4], 0.32 nM. Moreover, the Activity entry in data set [5] is given as “Non-toxic”. Further, the “Ratio IC50” value in data set [10] was 8.78.
Turning to `C=C1C[C@@H]2CC[C@@]34C[C@H]5O[C@H]6[C@@H](O3)[C@H]3O[C@H](CC[C@@H]3O[C@H]6[C@H]5O4)CC(=O)C[C@@H]3[C@@H](OC)[C@@H](C[C@H](O)CN)O[C@H]3C[C@H]3O[C@@H](CC[C@@H]1O2)C[C@@H](C)C3=C` [ERIBULIN], the IC50 in data set [1] was found to be 1.66 nM; in data set [2] it was 3060 nM; in data set [3], 20 nM; in [4], 204 nM. Moreover, the Activity entry in data set [5] is on record as “Non-toxic”. Further, in data set [6], the outcome was Active. For the same compound, in data set [10], the “Ratio IC50” value is 1842.
